Reference: BigSolDB 2.1

Compound: CCCCCCOC(=O)NC(=N)c1ccc(NCc2nc3cc(C(=O)N(CCC(=O)OCC)c4ccccn4)ccc3n2C)cc1.CS(=O)(=O)O
- solubility (mole fraction) (in DMAc, 287.37 K): 0.0228
- solubility (mole fraction) (in DMAc, 292.2 K): 0.0241
- solubility (mole fraction) (in DMAc, 297.95 K): 0.0264
- solubility (mole fraction) (in DMAc, 303.97 K): 0.0285
- solubility (mole fraction) (in DMAc, 308.88 K): 0.0311
- solubility (mole fraction) (in DMAc, 313.59 K): 0.0338
- solubility (mole fraction) (in DMAc, 318.4 K): 0.0372
- solubility (mole fraction) (in DMAc, 323.39 K): 0.0403
- solubility (mole fraction) (in DMF, 287.37 K): 0.0217
- solubility (mole fraction) (in DMF, 292.2 K): 0.0229
- solubility (mole fraction) (in DMF, 297.95 K): 0.0246
- solubility (mole fraction) (in DMF, 303.97 K): 0.0269
- solubility (mole fraction) (in DMF, 308.88 K): 0.0294
- solubility (mole fraction) (in DMF, 313.59 K): 0.0318
- solubility (mole fraction) (in DMF, 318.4 K): 0.035
- solubility (mole fraction) (in DMF, 323.39 K): 0.0385
- solubility (mole fraction) (in ethanol, 287.37 K): 0.00092
- solubility (mole fraction) (in ethanol, 292.2 K): 0.00116
- solubility (mole fraction) (in ethanol, 297.95 K): 0.00153
- solubility (mole fraction) (in ethanol, 303.97 K): 0.00208
- solubility (mole fraction) (in ethanol, 308.88 K): 0.00267
- solubility (mole fraction) (in ethanol, 313.59 K): 0.00343
- solubility (mole fraction) (in ethanol, 318.4 K): 0.00458
- solubility (mole fraction) (in ethanol, 323.39 K): 0.00626
- solubility (mole fraction) (in ethylene glycol, 287.37 K): 0.00425
- solubility (mole fraction) (in ethylene glycol, 292.2 K): 0.00524
- solubility (mole fraction) (in ethylene glycol, 297.95 K): 0.00619
- solubility (mole fraction) (in ethylene glycol, 303.97 K): 0.00786
- solubility (mole fraction) (in ethylene glycol, 308.88 K): 0.00961
- solubility (mole fraction) (in ethylene glycol, 313.59 K): 0.0112
- solubility (mole fraction) (in ethylene glycol, 318.4 K): 0.0143
- solubility (mole fraction) (in ethylene glycol, 323.39 K): 0.0179
- solubility (mole fraction) (in methanol, 287.37 K): 0.0158
- solubility (mole fraction) (in methanol, 292.2 K): 0.018
- solubility (mole fraction) (in methanol, 297.95 K): 0.0224
- solubility (mole fraction) (in methanol, 303.97 K): 0.0274
- solubility (mole fraction) (in methanol, 308.88 K): 0.0333
- solubility (mole fraction) (in methanol, 313.59 K): 0.0389
- solubility (mole fraction) (in methanol, 318.4 K): 0.0471
- solubility (mole fraction) (in methanol, 323.39 K): 0.055
